Source: PubChem BioAssay AID248 (DTP/NCI, 2004)
Several values for one entry are separate records, joined by “and”; a condition that tells them apart may be missing. Equal entries are not always repeated. Inconclusive results and toxic doses are left out. No stated cut-off is given here; in the data, active means T/C of 150% or more; inactive means T/C below 125%.

System: L1210 leukemia ip in BDF1 mice, survival T/C
Test: NCI In Vivo Anticancer Drug Screen. Data for tumor model L1210 Leukemia (intraperitoneal) in B6D2F1 (BDF1) mice
Details: endpoint: mean survival time, higher = longer survival
How it was run: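 Transplantable tumor model; survival measured in treated vs vehicle control mice. Value = treated/control.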

[1] = dose: 100.0 mg/kg/injection, schedule: Q01DX009 (ip), vehicle: saline with Tween-80
[2] = dose: 200.0 mg/kg/injection, schedule: Q01DX009 (ip), vehicle: saline with Tween-80
[3] = dose: 100.0 mg/kg/injection, schedule: Q04DX003 (ip), vehicle: Klucel (hydroxypropylcellulose) (HPC)
[4] = dose: 200.0 mg/kg/injection, schedule: Q04DX003 (ip), vehicle: Klucel (hydroxypropylcellulose) (HPC)
[5] = dose: 400.0 mg/kg/injection, schedule: Q04DX003 (ip), vehicle: Klucel (hydroxypropylcellulose) (HPC)
[6] = dose: 100.0 mg/kg/injection, schedule: Q01DX009 (ip), vehicle: Klucel (hydroxypropylcellulose) (HPC)
[7] = dose: 200.0 mg/kg/injection, schedule: Q01DX009 (ip), vehicle: Klucel (hydroxypropylcellulose) (HPC)
[8] = dose: 400.0 mg/kg/injection, schedule: Q01DX009 (ip), vehicle: Klucel (hydroxypropylcellulose) (HPC)
[9] = dose: 50.0 mg/kg/injection, schedule: Q04DX003 (ip), vehicle: saline
[10] = dose: 100.0 mg/kg/injection, schedule: Q01DX001 (ip), vehicle: saline
[11] = dose: 200.0 mg/kg/injection, schedule: Q01DX001 (ip), vehicle: saline
[12] = dose: 100.0 mg/kg/injection, schedule: Q04DX002 (ip), vehicle: carboxymethylcellulose (CMC)
[13] = dose: 200.0 mg/kg/injection, schedule: Q04DX002 (ip), vehicle: carboxymethylcellulose (CMC)
[14] = dose: 200.0 mg/kg/injection, schedule: Q04DX003 (ip), vehicle: carboxymethylcellulose (CMC)
[15] = dose: 400.0 mg/kg/injection, schedule: Q01DX001 (ip), vehicle: saline

Measured: T/C

C=CCOc1nc(SC)ncc1C(=O)O
inactive: dose: 100.0 mg/kg/injection, schedule: Q01DX001 (ip), vehicle: Klucel (hydroxypropylcellulose) (HPC) 97 % of control | dose: 200.0 mg/kg/injection, schedule: Q01DX001 (ip), vehicle: Klucel (hydroxypropylcellulose) (HPC) 97 % of control | dose: 400.0 mg/kg/injection, schedule: Q01DX001 (ip), vehicle: Klucel (hydroxypropylcellulose) (HPC) 91 % of control

O=[N+]([O-])c1ccc(F)cc1F
inactive: dose: 22.0 mg/kg/injection, schedule: Q01DX009 (ip), vehicle: Klucel (hydroxypropylcellulose) (HPC) 103 % of control | dose: 43.7 mg/kg/injection, schedule: Q01DX009 (ip), vehicle: Klucel (hydroxypropylcellulose) (HPC) 105 % of control | dose: 87.5 mg/kg/injection, schedule: Q01DX009 (ip), vehicle: Klucel (hydroxypropylcellulose) (HPC) 97 % of control and 114 % of control

O=C(O)c1c(-c2ccccc2)oc(-c2ccccc2)c1C(=O)O
inactive: dose: 100.0 mg/kg/injection, schedule: Q04DX002 (ip), vehicle: saline 105 % of control | dose: 200.0 mg/kg/injection, schedule: Q04DX002 (ip), vehicle: saline 94 % of control

Oc1ccc(O)c2[nH]c(-c3ccccc3)cc12
inactive: dose: 6.25 mg/kg/injection, schedule: Q04DX002 (ip), vehicle: saline with Tween-80 97 % of control | dose: 12.5 mg/kg/injection, schedule: Q04DX002 (ip), vehicle: saline with Tween-80 97 % of control

Clc1ccc(C#[C][Hg][C]#Cc2ccc(Cl)cc2)cc1
inactive: dose: 50.0 mg/kg/injection, schedule: Q01DX009 (ip), vehicle: saline with Tween-80 109 % of control | [1] 95 % of control | [2] 92 % of control

CNc1nc(SCc2ccccc2)c2ncn(C3OC(CO)C(O)C3O)c2n1 (configuration not stated)
inactive: dose: 50.0 mg/kg/injection, schedule: Q01DX001 (ip), vehicle: carboxymethylcellulose (CMC) 106 % of control | dose: 100.0 mg/kg/injection, schedule: Q01DX001 (ip), vehicle: carboxymethylcellulose (CMC) 95 % of control | dose: 200.0 mg/kg/injection, schedule: Q01DX001 (ip), vehicle: carboxymethylcellulose (CMC) 104 % of control

CN=C(c1ccc(NC(=O)c2ccc(C(=O)Nc3ccc(C(=NC)N4CCOCC4)cc3)cc2)cc1)N1CCOCC1
inactive: dose: 0.9 mg/kg/injection, schedule: Q01DX Z (ip), vehicle: carboxymethylcellulose (CMC) 86 % of control | dose: 1.87 mg/kg/injection, schedule: Q01DX Z (ip), vehicle: carboxymethylcellulose (CMC) 91 % of control | dose: 3.75 mg/kg/injection, schedule: Q01DX Z (ip), vehicle: carboxymethylcellulose (CMC) 93 % of control | dose: 7.5 mg/kg/injection, schedule: Q01DX Z (ip), vehicle: carboxymethylcellulose (CMC) 91 % of control | dose: 15.0 mg/kg/injection, schedule: Q01DX Z (ip), vehicle: carboxymethylcellulose (CMC) 101 % of control

Fc1ccccc1-c1nnc(-c2ccccc2)o1
inactive: [3] 98 % of control | [4] 113 % of control | [5] 103 % of control

O=CNC(Cc1cccc(N(CCCl)CCCl)c1)C(=O)O (configuration not stated)
inactive: dose: 8.0 mg/kg/injection, schedule: Q01DX Z (ip), vehicle: methylcellulose (MC) 106 % of control | dose: 12.0 mg/kg/injection, schedule: Q01DX Z (ip), vehicle: methylcellulose (MC) 95 % of control | dose: 18.0 mg/kg/injection, schedule: Q01DX Z (ip), vehicle: methylcellulose (MC) 103 % of control | dose: 27.0 mg/kg/injection, schedule: Q01DX Z (ip), vehicle: methylcellulose (MC) 97 % of control

CC[N+](CC)(CC)CCNC(c1ccccc1)C(Cl)(Cl)Cl (configuration not stated)
inactive: dose: 12.5 mg/kg/injection, schedule: Q01DX001 (ip), vehicle: saline 97 % of control | dose: 25.0 mg/kg/injection, schedule: Q01DX001 (ip), vehicle: saline 87 % of control | dose: 50.0 mg/kg/injection, schedule: Q01DX001 (ip), vehicle: saline 95 % of control

O=C(CCl)OC1CCCCC1
inactive: [1] 105 % of control | [2] 97 % of control

O=C(Nc1ccc(Cl)cc1)C(Cl)Cl
inactive: [6] 98 % of control | [3] 100 % of control | [7] 98 % of control | [4] 100 % of control | [8] 102 % of control | [5] 102 % of control

OC1(c2ccccc2)CCC1
inactive: dose: 62.0 mg/kg/injection, schedule: Q01DX009 (ip), vehicle: saline with Tween-80 91 % of control | dose: 125.0 mg/kg/injection, schedule: Q01DX009 (ip), vehicle: saline with Tween-80 99 % of control | dose: 250.0 mg/kg/injection, schedule: Q01DX009 (ip), vehicle: saline with Tween-80 97 % of control

CCCCCCCCCCCCCCCC(N)=O
inactive: [6] 93 % of control | [3] 90 % of control | [7] 102 % of control | [4] 87 % of control | [8] 94 % of control | [5] 98 % of control

O=S1(=O)C(Cl)(Cl)SC(Cl)(Cl)S(=O)(=O)C1(Cl)Cl
inactive: dose: 12.5 mg/kg/injection, schedule: Q01DX009 (ip), vehicle: saline 101 % of control | dose: 25.0 mg/kg/injection, schedule: Q01DX009 (ip), vehicle: saline 93 % of control | dose: 50.0 mg/kg/injection, schedule: Q01DX009 (ip), vehicle: saline 101 % of control | [9] 93 % of control | [10] 96 % of control | [11] 98 % of control

CCCCCCCCCCCCNC(=O)c1cc[n+](C)cc1
inactive: dose: 12.5 mg/kg/injection, schedule: Q04DX003 (ip), vehicle: saline 103 % of control and 88 % of control and 93 % of control | dose: 25.0 mg/kg/injection, schedule: Q04DX003 (ip), vehicle: saline 99 % of control and 87 % of control and 91 % of control | [9] 93 % of control and 91 % of control and 88 % of control

COc1ccc(C(=O)N/N=C/c2cc(OC)ccc2O)cc1
inactive: dose: 100.0 mg/kg/injection, schedule: Q04DX002 (ip), vehicle: Klucel (hydroxypropylcellulose) (HPC) 110 % of control | dose: 200.0 mg/kg/injection, schedule: Q04DX002 (ip), vehicle: Klucel (hydroxypropylcellulose) (HPC) 104 % of control | dose: 400.0 mg/kg/injection, schedule: Q04DX002 (ip), vehicle: Klucel (hydroxypropylcellulose) (HPC) 100 % of control

O=P(Oc1ccccc1)(N1CCCCC1)N1CCCCC1
inactive: dose: 25.0 mg/kg/injection, schedule: Q01DX001 (ip), vehicle: other 96 % of control | dose: 25.0 mg/kg/injection, schedule: Q01DX009 (ip), vehicle: carboxymethylcellulose (CMC) 97 % of control and 101 % of control | dose: 25.0 mg/kg/injection, schedule: Q04DX003 (ip), vehicle: other 97 % of control | dose: 50.0 mg/kg/injection, schedule: Q01DX001 (ip), vehicle: other 91 % of control | dose: 50.0 mg/kg/injection, schedule: Q04DX003 (ip), vehicle: other 108 % of control | dose: 100.0 mg/kg/injection, schedule: Q01DX001 (ip), vehicle: other 106 % of control | [12] 95 % of control and 100 % of control | dose: 100.0 mg/kg/injection, schedule: Q04DX003 (ip), vehicle: other 93 % of control | [13] 104 % of control and 106 % of control | [14] 92 % of control

CSc1n[nH]c(=O)[nH]c1=O
inactive: [10] 100 % of control | [11] 102 % of control | [15] 94 % of control

O=[N+]([O-])C=C([SH2+])[SH2+].O=[N+]([O-])C=C([SH2+])[SH2+].[Ni+2].c1ccc(C[P+](c2ccccc2)(c2ccccc2)c2ccccc2)cc1
inactive: dose: 75.0 mg/kg/injection, schedule: Q04DX003 (ip), vehicle: saline 101 % of control | dose: 150.0 mg/kg/injection, schedule: Q04DX003 (ip), vehicle: saline 101 % of control

O=C(Oc1ccc(Br)cc1)c1cc([N+](=O)[O-])ccc1O
inactive: [10] 98 % of control | [11] 104 % of control | [15] 103 % of control

Cc1c(F)cccc1C(=O)O
inactive: dose: 100.0 mg/kg/injection, schedule: Q01DX009 (ip), vehicle: carboxymethylcellulose (CMC) 101 % of control and 102 % of control | [12] 100 % of control | dose: 100.0 mg/kg/injection, schedule: Q04DX003 (ip), vehicle: carboxymethylcellulose (CMC) 103 % of control | dose: 200.0 mg/kg/injection, schedule: Q01DX009 (ip), vehicle: carboxymethylcellulose (CMC) 102 % of control and 87 % of control | [13] 93 % of control and 105 % of control | [14] 103 % of control | dose: 400.0 mg/kg/injection, schedule: Q01DX009 (ip), vehicle: carboxymethylcellulose (CMC) 97 % of control and 90 % of control | dose: 400.0 mg/kg/injection, schedule: Q04DX002 (ip), vehicle: carboxymethylcellulose (CMC) 93 % of control and 102 % of control | dose: 400.0 mg/kg/injection, schedule: Q04DX003 (ip), vehicle: carboxymethylcellulose (CMC) 101 % of control
